Results: ChEMBL document CHEMBL6078635, “Advances in diarylpyrimidines and related analogues as HIV-1 nonnucleoside reverse transcriptase inhibitors (2019-2023)” (Eur J Med Chem, 2024)
Each block holds one compound with its values, some of them ahead of it.

Tests used:
[1] = system: Human immunodeficiency virus 1; assay: Antiviral activity against HIV1 harboring Y181C mutant infected in MT4 cells; type: functional, organism-based; conditions: Human immunodeficiency virus 1, MT4
[2] = Aqueous solubility of compound at pH 7.4 incubated for 24 hrs by LC-MS/MS analysis; type: physicochemical; conditions: buffer
[3] = system: Human immunodeficiency virus 1; assay: Antiviral activity against wild type HIV-1; type: functional, organism-based
[4] = system: Human immunodeficiency virus 1; assay: Antiviral activity against HIV1 harboring E138K mutant infected in MT4 cells; type: functional, organism-based; conditions: Human immunodeficiency virus 1, MT4
[5] = system: Human immunodeficiency virus 1; assay: Antiviral activity against HIV1 harboring K103N/Y181C double mutant; type: functional, organism-based
[6] = system: Human immunodeficiency virus 1; assay: Antiviral activity against HIV1 harboring K103N mutant infected in MT4 cells; type: functional, organism-based; conditions: Human immunodeficiency virus 1, MT4
[7] = system: Human immunodeficiency virus 1; assay: Antiviral activity against HIV-1 […] mutant; type: functional, organism-based
[8] = system: Human immunodeficiency virus 1; assay: Antiviral activity against HIV1 harboring Y188L mutant infected in MT4 cells; type: functional, organism-based; conditions: Human immunodeficiency virus 1, MT4
[9] = Lipophilicity, logP of compound; type: physicochemical; conditions: octanol/water
[10] = system: Human immunodeficiency virus 1; assay: Antiviral activity against HIV1 harboring F227L/V106A double mutant infected in MT4 cells; type: functional, organism-based; conditions: Human immunodeficiency virus 1, MT4
MT4 [11] = assay: Cytotoxicity against human MT4 cells assessed as reduction in cell viability after 5 days by MTT assay; type: functional; conditions: MT4, 120 h, time 5 day
[12] = system: Human immunodeficiency virus 1; assay: Antiviral activity against HIV-1 3B harboring F227L/V106A double mutant infected in MT4 cells assessed as reduction in virus induced cytopathic effect incubated for 5 days by MTT method; type: functional, organism-based; conditions: Human immunodeficiency virus 1, 3B, MT4, 120 h
[13] = system: Human immunodeficiency virus 1; assay: Antiviral activity against HIV-1 Y188L mutant infected in human MT4 cells assessed as reduction in virus induced cytopathic effect incubated for 5 days by MTT method; type: functional, organism-based; conditions: Human immunodeficiency virus 1, MT4, 120 h
[14] = system: Human immunodeficiency virus 1; assay: Antiviral activity against NNRTI-resistant HIV-1 harboring Y181C mutant assessed as inhibition of viral growth; type: functional, organism-based
[15] = system: Human immunodeficiency virus 1; assay: Antiviral activity against wild type HIV-1 3B infected in human MT4 cells assessed as inhibition of virus-induced cytopathic effect measured for 5 days by MTT assay; type: functional, organism-based; conditions: Human immunodeficiency virus 1, 3B, MT4, 120 h
[16] = system: Human immunodeficiency virus 1; assay: Antiviral activity against HIV1 harboring K103N mutant infected in MT4 cells assessed as inhibition of viral growth; type: functional, organism-based; conditions: Human immunodeficiency virus 1, MT4
[17] = system: Human immunodeficiency virus 1; assay: Antiviral activity against HIV-1 3B harboring L100I mutant infected in MT4 cells assessed as reduction in virus induced cytopathic effect incubated for 5 days by MTT method; type: functional, organism-based; conditions: Human immunodeficiency virus 1, 3B, MT4, 120 h
[18] = system: Human immunodeficiency virus 1; assay: Antiviral activity against HIV-1 3B harboring E138K mutant infected in MT4 cells assessed as reduction in virus induced cytopathic effect incubated for 5 days by MTT assay; type: functional, organism-based; conditions: Human immunodeficiency virus 1, 3B, MT4, 120 h
[19] = Metabolic stability in human liver microsomes assessed as half life measured upto 120 mins by LC-MS/MS analysis; type: ADME, Microsome
[20] = Metabolic stability in human liver microsomes assessed as intrinsic clearance measured for 60 mins by LC-MS/MS analysis; type: ADME, Microsome; conditions: read-out: CLH
MOLT-4 = assay: Cytotoxicity against human MOLT-4 cells assessed as reduction in cell viability by MTT assay; type: functional
[21] = system: Human immunodeficiency virus 1; assay: Antiviral activity against HIV-1 3B infected in human MT4 cells assessed as inhibition of viral replication incubated for 5 days by MTT assay; type: functional, organism-based; conditions: Human immunodeficiency virus 1, 3B, MT4, 120 h
MT4 [22] = assay: Cytotoxicity against human MT4 cells assessed as reduction in cell viability; type: functional
MT2 = assay: Cytotoxicity against human MT2 cells; type: functional
[23] = Selectivity index, ratio of CC50 for cytotoxicity against human MT4 cells to EC50 for antiviral activity against wild type HIV-1 IIIB infected in human MT4 cells; type: toxicity, cell-based; conditions: read-out: Selectivity Index
[24] = molecular target: Human immunodeficiency virus type 1 reverse transcriptase (Human immunodeficiency virus 1, UniProt Q72547); assay: Inhibition of wild type HIV-1 Reverse transcriptase

SMILES: N#Cc1ccc(Nc2nc(N)cc(Oc3c(F)cc(-c4ccc(C#N)cc4)cc3F)n2)cc1
EC50 [1]: 32 nM | solubility at 24 h [2]: < 1 µg/mL | EC50 [3]: 1.8 nM | EC50 [4]: 8 nM | EC50 [5]: 10 nM | EC50 [6]: 2 nM | EC50 [7]: 16 nM | EC50 [8]: 1050 nM

logP [9]: 5.36
SMILES: N#Cc1ccc(Nc2nccc(Oc3ccc4ccccc4c3)n2)cc1

SMILES: Cc1cc(/C=C/C#N)cc(C)c1Oc1nc(NC2CCN(Cc3ccc(B(O)O)cc3)CC2)nc2c1COC2
EC50 [1]: 19.7 nM | EC50 [3]: 7.23 nM | EC50 [4]: 17.3 nM | EC50 [5]: 77.9 nM | EC50 [6]: 7.19 nM | EC50 [7]: 9.85 nM | EC50 [8]: 39.9 nM | EC50 [10]: 43.2 nM | CC50 (MT4 [11]): 25600 nM

SMILES: Cc1cc(-c2ccc(F)cc2)cc(C)c1Oc1nc(NC2CCN(Cc3ccc(C(N)=O)cc3)CC2)nc2ccsc12
EC50 [12]: 56.6 nM | EC50 [5]: 575 nM | EC50 [13]: 51.4 nM | EC50 [14]: 36.1 nM | EC50 [15]: 12.8 nM | EC50 [16]: 11.7 nM | EC50 [17]: 61.1 nM | EC50 [18]: 34.8 nM

SMILES: N#Cc1ccc(Nc2ncc(CO)c(Nc3c(F)cc(-c4ccc(C#N)cc4)cc3F)n2)cc1
half-life [19]: 45.9 h | EC50 [1]: 8.2 nM | EC50 [3]: 0.9 nM | EC50 [4]: 3.5 nM | EC50 [7]: 1.9 nM | CLint scaled [20]: 0.763 mL/min/kg | CC50 (MOLT-4): 225000 nM | EC50 [8]: 162 nM

SMILES: Cc1cc(-c2ccsc2)cc(C)c1Oc1nc(NC2CCN(Cc3ccc(C(N)=O)cc3)CC2)nc2ccsc12
EC50 [12]: 854 nM | EC50 [5]: 4520 nM | EC50 [13]: 628 nM | EC50 [14]: 741 nM | EC50 [15]: 240 nM | EC50 [16]: 171 nM | EC50 [17]: 925 nM | EC50 [18]: 739 nM

SMILES: Cc1cc(-c2ccoc2)cc(C)c1Oc1nc(NC2CCN(Cc3ccc(C(N)=O)cc3)CC2)nc2ccsc12
EC50 [12]: 525 nM | EC50 [5]: 813 nM | EC50 [13]: 222 nM | EC50 [14]: 180 nM | EC50 [15]: 57.5 nM | EC50 [16]: 74.8 nM | EC50 [17]: 262 nM | EC50 [18]: 177 nM

SMILES: Cc1cc(-c2ccc(C#N)cc2)cc(C)c1Oc1nc(NC2CCN(Cc3ccc(C(N)=O)cc3)CC2)nc2ccsc12
EC50 [12]: 97.2 nM | EC50 [5]: 125 nM | EC50 [13]: 23.9 nM | EC50 [14]: 18.9 nM | EC50 [15]: 9.93 nM | EC50 [16]: 6.02 nM | EC50 [17]: 10.5 nM | EC50 [18]: 23.2 nM

SMILES: N#Cc1ccc(Nc2nccc(C(C#N)c3ccc(-c4ccc(C#N)cc4)c(F)c3)n2)cc1 (configuration not stated)
EC50 [1]: 870 nM | EC50 [4]: 170 nM | EC50 [21]: 20 nM | EC50 [5]: > 36500 nM | EC50 [6]: 900 nM | EC50 [7]: 1210 nM | CC50 (MT4 [22]): 36400 nM | EC50 [8]: 9810 nM | EC50 [10]: > 25600 nM

SMILES: Cc1cc(C#CC2CCN(Cc3ccncc3)CC2)cc(C)c1Oc1ccnc(Nc2ccc(C#N)cc2)n1
EC50 [3]: 19 nM | EC50 [4]: 190 nM | EC50 [6]: 50 nM | CC50 (MT2): 192000 nM | selectivity ratio [23]: 101

SMILES: COC(=O)n1ncc(-c2cc(C)c(Oc3ccnc(Nc4ccc(C#N)cc4)n3)c(C)c2)n1
EC50 [3]: 13 nM | EC50 [4]: 160 nM | EC50 [6]: 22 nM | CC50 (MT2): > 242000 nM

IC50 [24]: 11 nM
SMILES: N#Cc1ccc(Nc2nccc(Oc3ccc4cccnc4c3Br)n2)cc1
CC50 (MT2): > 299000 nM

SMILES: Cc1cc(-c2ccc(C#N)cc2)cc(C)c1Oc1nc(NC2CCN(Cc3ccc(S(N)(=O)=O)cc3)CC2)nc2ccsc12
EC50 [12]: 59.9 nM | EC50 [5]: 103 nM | EC50 [13]: 53.6 nM | EC50 [14]: 30.8 nM | EC50 [15]: 17 nM | EC50 [16]: 13.2 nM | EC50 [17]: 27.4 nM | EC50 [18]: 44.4 nM

SMILES: Cc1cc(/C=C/C#N)cc(C)c1Nc1ccnc(Nc2ccc(C#N)cc2)n1 [RILPIVIRINE]
CC50 (MT4 [11]): > 3980 nM
